Data: US9242970B2 (ACTELION PHARMACEUTICALS LTD., priority 2010, dated 2016)

target: human orexin-2 receptor (Homo sapiens (Human), UniProt O43614); experiment: In vitro assay: intracellular calcium measurements (FLIPR), antagonistic activity; type: cell-based; conditions: CHO cells, 3 nM orexin-A, compound incubation 120 min; marked values are geometric means of n = 2-6; read-out: IC50 OX2
Method: (§1) In Vitro Assay: Intracellular Calcium Measurements:
(§2) Chinese hamster ovary (CHO) cells expressing the human orexin-1 receptor and the human orexin-2 receptor, respectively, are grown in culture medium (Ham F-12 with L-Glutamine) containing 300 µg/ml G418, 100 U/ml penicillin, 100 µg/ml streptomycin and 10% heat inactivated fetal calf serum (FCS). The cells are seeded at 20,000 cells/well into 384-well black clear bottom sterile plates (Greiner). The seeded plates are incubated overnight at 37° C. in 5% CO2.
(§3) Fluorescence is measured for each well at 1 second intervals, and the height of each fluorescence peak is compared to the height of the fluorescence peak induced by 3 nM orexin-A with vehicle in place of antagonist. […] Optimized conditions were achieved by adjustment of pipetting speed and cell splitting regime. The calculated IC50 values may fluctuate depending on the daily cellular assay performance. Fluctuations of this kind are known to those skilled in the art.

Sequence of human orexin-2 receptor (O43614 whole entry): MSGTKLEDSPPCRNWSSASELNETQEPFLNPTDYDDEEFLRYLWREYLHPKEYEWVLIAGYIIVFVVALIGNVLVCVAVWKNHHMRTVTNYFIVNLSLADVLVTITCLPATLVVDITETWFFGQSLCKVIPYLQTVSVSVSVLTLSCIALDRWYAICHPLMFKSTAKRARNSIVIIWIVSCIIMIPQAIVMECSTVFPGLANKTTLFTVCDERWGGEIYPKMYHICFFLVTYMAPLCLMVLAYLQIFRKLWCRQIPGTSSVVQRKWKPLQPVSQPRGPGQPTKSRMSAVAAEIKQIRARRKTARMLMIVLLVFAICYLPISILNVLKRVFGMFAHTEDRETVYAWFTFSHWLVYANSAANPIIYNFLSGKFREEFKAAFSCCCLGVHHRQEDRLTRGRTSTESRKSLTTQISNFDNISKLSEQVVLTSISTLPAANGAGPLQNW

IC50 [nM] | SMILES
2210 | COc1cc(F)ccc1[C@@H]1C[C@@H](O)C(=O)N1Cc1ccc(OC(F)(F)F)cc1 (racemic) [Example 296, rac-(3R*,5S*)-5-(4-fluoro-2-methoxyphenyl)-3-hydroxy-1-(4-(trifluoromethoxy)benzyl)pyrrolidin-2-one]
405 | COc1c(F)ccc(F)c1[C@@H]1C[C@H](F)C(=O)N1Cc1ccc(OC(F)(F)F)cc1 (racemic) [Example 321, rac-(3S*,5S*)-5-(3,6-difluoro-2-methoxyphenyl)-3-fluoro-1-(4-(trifluoromethoxy)benzyl)pyrrolidin-2-one]
30 | CCOc1cccc(F)c1C1CC(C)C(=O)N1Cc1ccc(OC(F)(F)F)cc1 (centres unmarked) [Example 370, 5-(2-ethoxy-6-fluorophenyl)-3-methyl-1-(4-(trifluoromethoxy)benzyl)pyrrolidin-2-one]
1680 | CCOc1c(F)cccc1[C@@H]1C[C@@H](O)C(=O)N1Cc1ccc(OC(F)(F)F)cc1 (racemic) [Example 310, rac-(3R*,5S*)-5-(2-ethoxy-3-fluorophenyl)-3-hydroxy-1-(4-(trifluoromethoxy)benzyl)pyrrolidin-2-one]

target: human orexin-1 receptor (Homo sapiens (Human), UniProt O43613); experiment: as above; type: cell-based; conditions: CHO cells, 3 nM orexin-A, compound incubation 120 min; marked values are geometric means of n = 2-6; read-out: IC50 OX1
Sequence (O43613 whole entry): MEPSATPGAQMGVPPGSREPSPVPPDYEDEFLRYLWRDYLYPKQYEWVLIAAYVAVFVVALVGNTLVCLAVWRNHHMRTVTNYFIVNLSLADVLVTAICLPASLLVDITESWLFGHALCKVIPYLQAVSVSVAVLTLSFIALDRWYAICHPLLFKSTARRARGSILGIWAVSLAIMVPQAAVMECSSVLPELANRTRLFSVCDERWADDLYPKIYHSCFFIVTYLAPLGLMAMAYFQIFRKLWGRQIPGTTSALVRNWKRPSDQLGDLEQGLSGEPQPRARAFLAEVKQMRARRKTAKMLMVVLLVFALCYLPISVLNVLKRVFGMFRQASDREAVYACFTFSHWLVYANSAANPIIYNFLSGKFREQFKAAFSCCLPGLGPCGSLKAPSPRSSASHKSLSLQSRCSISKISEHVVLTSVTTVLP
Method: as §1, §2, §3

IC50 [nM] | SMILES
563 | O=C1[C@@H](Cl)C[C@@H](c2cccc3c2OCCO3)N1Cc1ccc(OC(F)(F)F)cc1 (racemic) [Example 307, rac-(3S*,5S*)-3-chloro-5-(2,3-dihydrobenzo[b][1,4]dioxin-5-yl)-1-(4-(trifluoromethoxy)benzyl)pyrrolidin-2-one]
2440 | COc1cccc(Cl)c1[C@@H]1C[C@@H](O)C(=O)N1Cc1ccc(OC(F)(F)F)cc1 (racemic) [Example 294, rac-(3R*,5S*)-5-(2-chloro-6-methoxyphenyl)-3-hydroxy-1-(4-(trifluoromethoxy)benzyl)pyrrolidin-2-one]
323 | CC(C)Oc1cccc(F)c1[C@@H]1C[C@H](Cl)C(=O)N1Cc1ccc(OC(F)(F)F)cc1 (racemic) [Example 409, rac-(3S*,5S*)-3-chloro-5-(2-fluoro-6-isopropoxyphenyl)-1-(4-(trifluoromethoxy)benzyl)pyrrolidin-2-one]
1800 | CCOc1cc(F)ccc1[C@@H]1C[C@H](F)C(=O)N1Cc1ccc(OC(F)(F)F)cc1 (racemic) [Example 344, rac-(3S*,5S*)-5-(2-ethoxy-4-fluorophenyl)-3-fluoro-1-(4-(trifluoromethoxy)benzyl)pyrrolidin-2-one]
1200 | COc1ccc2ccccc2c1[C@@H]1C[C@H](F)C(=O)N1Cc1ccc(OC(F)(F)F)cc1 (racemic) [Example 315, rac-(3S*,5S*)-3-fluoro-5-(2-methoxynaphthalen-1-yl)-1-(4-(trifluoromethoxy)benzyl)pyrrolidin-2-one]
1230 | CCOc1cccc(Cl)c1[C@@H]1C[C@@H](O)C(=O)N1Cc1ccc(OC(F)(F)F)cc1 (racemic) [Example 427, rac-(3R*,5S*)-5-(2-chloro-6-ethoxyphenyl)-3-hydroxy-1-(4-(trifluoromethoxy)benzyl)pyrrolidin-2-one]
1060 | CCOc1c(F)cccc1[C@@H]1C[C@@H](Cl)C(=O)N1Cc1ccc(OC(F)(F)F)cc1 (racemic) [Example 327, rac-(3R*,5S*)-3-chloro-5-(2-ethoxy-3-fluorophenyl)-1-(4-(trifluoromethoxy)benzyl)pyrrolidin-2-one]
227 | COc1ccc(F)c(OC)c1[C@@H]1C[C@H](Cl)C(=O)N1Cc1ccc(OC(F)(F)F)cc1 (racemic) [Example 330, rac-(3S*,5S*)-3-chloro-5-(3-fluoro-2,6-dimethoxyphenyl)-1-(4-(trifluoromethoxy)benzyl)pyrrolidin-2-one]
23 | COc1cccc(OC)c1[C@@H]1C[C@@H](F)C(=O)N1Cc1ccc2oc3ccccc3c2c1 (racemic) [Example 368, rac-(3R*,5S*)-1-(dibenzo[b,d]furan-2-ylmethyl)-5-(2,6-dimethoxyphenyl)-3-fluoropyrrolidin-2-one]
678 | CC(C)Oc1cccc(F)c1[C@@H]1C[C@H](F)C(=O)N1Cc1ccc(OC(F)(F)F)cc1 (racemic) [Example 407, rac-(3S*,5S*)-3-fluoro-5-(2-fluoro-6-isopropoxyphenyl)-1-(4-(trifluoromethoxy)benzyl)pyrrolidin-2-one]
1070 | COc1c(F)ccc(F)c1[C@@H]1C[C@@H](Cl)C(=O)N1Cc1ccc(OC(F)(F)F)cc1 (racemic) [Example 317, rac-(3R*,5S*)-3-chloro-5-(3,6-difluoro-2-methoxyphenyl)-1-(4-(trifluoromethoxy)benzyl)pyrrolidin-2-one]
739 | COc1ccc(F)c(OC)c1[C@@H]1C[C@@H](Cl)C(=O)N1Cc1ccc(OC(F)(F)F)cc1 (racemic) [Example 328, rac-(3R*,5S*)-3-chloro-5-(3-fluoro-2,6-dimethoxyphenyl)-1-(4-(trifluoromethoxy)benzyl)pyrrolidin-2-one]
1050 | COc1c(F)ccc(F)c1[C@@H]1C[C@H](Cl)C(=O)N1Cc1ccc(OC(F)(F)F)cc1 (racemic) [Example 320, rac-(3S*,5S*)-3-chloro-5-(3,6-difluoro-2-methoxyphenyl)-1-(4-(trifluoromethoxy)benzyl)pyrrolidin-2-one]
5360 | COc1cccc(F)c1[C@@H]1C[C@@H](O)C(=O)N1Cc1cccc(OC(F)(F)F)c1 (racemic) [Example 430, rac-(3R*,5S*)-5-(2-fluoro-6-methoxyphenyl)-3-hydroxy-1-(3-(trifluoromethoxy)benzyl)pyrrolidin-2-one]
2750 | COc1cccc(F)c1[C@@H]1C[C@@H](O)C(=O)N1Cc1ccc(OC(F)(F)F)cc1 (racemic) [Example 293, rac-(3R*,5S*)-5-(2-fluoro-6-methoxyphenyl)-3-hydroxy-1-(4-(trifluoromethoxy)benzyl)pyrrolidin-2-one]
1080 | O=C1[C@H](Cl)C[C@@H](c2cccc3c2OCCO3)N1Cc1ccc(OC(F)(F)F)cc1 (racemic) [Example 322, rac-(3R*,5S*)-3-chloro-5-(2,3-dihydrobenzo[b][1,4]dioxin-5-yl)-1-(4-(trifluoromethoxy)benzyl)pyrrolidin-2-one]
405 | CCOc1cccc(F)c1[C@@H]1C[C@H](Cl)C(=O)N1Cc1ccc(OC(F)(F)F)c(Cl)c1 (racemic) [Example 462, rac-(3S*,5S*)-3-chloro-1-(3-chloro-4-(trifluoromethoxy)benzyl)-5-(2-ethoxy-6-fluorophenyl)pyrrolidin-2-one]
1380 | COc1cccc(C)c1[C@@H]1C[C@H](F)C(=O)N1Cc1ccc(OC(F)(F)F)cc1 (racemic) [Example 325, rac-(3S*,5S*)-3-fluoro-5-(2-methoxy-6-methylphenyl)-1-(4-(trifluoromethoxy)benzyl)pyrrolidin-2-one]
724 | CCOc1cccc(F)c1[C@@H]1C[C@H](F)C(=O)N1Cc1ccc(OC(F)(F)F)c(Cl)c1 (racemic) [Example 461, rac-(3S*,5S*)-1-(3-chloro-4-(trifluoromethoxy)benzyl)-5-(2-ethoxy-6-fluorophenyl)-3-fluoropyrrolidin-2-one]
885 | CCOc1c(F)cccc1[C@@H]1C[C@H](Cl)C(=O)N1Cc1ccc(OC(F)(F)F)cc1 (racemic) [Example 329, rac-(3S*,5S*)-3-chloro-5-(2-ethoxy-3-fluorophenyl)-1-(4-(trifluoromethoxy)benzyl)pyrrolidin-2-one]

SMILES | IC50 [nM]
CCOc1ccc(F)c(F)c1[C@@H]1C[C@H](Cl)C(=O)N1Cc1ccc(OC(F)(F)F)cc1 (racemic) [Example 339, rac-(3S*,5S*)-3-chloro-5-(6-ethoxy-2,3-difluorophenyl)-1-(4-(trifluoromethoxy)benzyl)pyrrolidin-2-one] | 816
COc1cccc(OC)c1C1CCCC(=O)N1Cc1ccc2ccccc2n1 (centres unmarked) [Example 4, 6-(2,6-dimethoxyphenyl)-1-(quinolin-2-ylmethyl)piperidin-2-one] | 174
CCOc1ccc(F)c(F)c1[C@@H]1C[C@@H](Cl)C(=O)N1Cc1ccc(OC(F)(F)F)cc1 (racemic) [Example 346, rac-(3R*,5S*)-3-chloro-5-(6-ethoxy-2,3-difluorophenyl)-1-(4-(trifluoromethoxy)benzyl)pyrrolidin-2-one] | 2850
COc1cccc(OC)c1C1CCCC(=O)N1Cc1ccc2ccccc2n1 (centres unmarked) [Example 4b, 6-(2,6-dimethoxyphenyl)-1-(quinolin-2-ylmethyl)piperidin-2-one] | 1420
COc1cccc(OC)c1C1CCCC(=O)N1Cc1cnc(OC(F)F)c(C2CC2)c1 (centres unmarked) [Example 70, 1-((5-cyclopropyl-6-(difluoromethoxy)pyridin-3-yl)methyl)-6-(2,6-dimethoxyphenyl)piperidin-2-one] | 1780
COc1cccc(OC)c1C1CCCC(=O)N1Cc1ccc2ccccc2n1 (centres unmarked) [Example 4a, 6-(2,6-dimethoxyphenyl)-1-(quinolin-2-ylmethyl)piperidin-2-one] | 16

same assay, conditions: CHO cells, 3 nM orexin-A, compound incubation time of 10 min; marked values are geometric means of n = 2-6; read-out: IC50 OX1

SMILES | IC50 [nM]
CCOc1cccc(OCC)c1C1CCCC(=O)N1Cc1ccc(OC(F)(F)F)cc1 (centres unmarked) [Example 231, 6-(2,6-diethoxyphenyl)-1-(4-(trifluoromethoxy)benzyl)piperidin-2-one] | 550
COc1cccc(F)c1[C@@H]1C[C@H](O)C(=O)N1Cc1ccc(OC(F)(F)F)cc1 (racemic) [Example 265, rac-(3S*,5S*)-5-(2-fluoro-6-methoxyphenyl)-3-hydroxy-1-(4-(trifluoromethoxy)benzyl)pyrrolidin-2-one] | 730
